Patent publication US5891882A, “Benzopyranopyrrole and benzopyranopyridine α-1 adenergic compounds” (priority 1997, dated 1999)
Structures can show the parent of a compound that is named as a salt.

Key:
[1] = target: T1, α-1B adrenoreceptor (rat spleen) (Rattus norvegicus, UniProt P15823); assay: Functional antagonism: inhibition of phenylephrine-induced contraction of rat spleen; assay type: cell-based; conditions: rat spleen, phenylephrine-induced contraction, Schild plot
T1 construct: from tissue; host or cells: rat spleen
T1 sequence (P15823 1-515): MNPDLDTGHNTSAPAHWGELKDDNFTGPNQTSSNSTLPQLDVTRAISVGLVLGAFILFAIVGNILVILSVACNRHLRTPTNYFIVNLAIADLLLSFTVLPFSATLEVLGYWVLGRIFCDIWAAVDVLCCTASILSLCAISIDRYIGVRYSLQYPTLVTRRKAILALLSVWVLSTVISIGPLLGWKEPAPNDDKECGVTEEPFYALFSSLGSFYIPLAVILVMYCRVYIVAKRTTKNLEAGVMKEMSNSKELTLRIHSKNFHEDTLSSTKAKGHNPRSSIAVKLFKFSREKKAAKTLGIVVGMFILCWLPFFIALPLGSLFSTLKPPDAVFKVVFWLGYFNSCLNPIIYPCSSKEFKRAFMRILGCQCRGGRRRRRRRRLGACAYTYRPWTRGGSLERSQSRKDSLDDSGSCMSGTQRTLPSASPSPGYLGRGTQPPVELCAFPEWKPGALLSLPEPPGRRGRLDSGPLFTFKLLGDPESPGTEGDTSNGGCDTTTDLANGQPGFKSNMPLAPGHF
Description: (§1) Functional assays indicative of pharmacologically defined α-1 adrenoreceptors were used to further characterize compounds. Inhibition of phenylephrine (PE)-induced contraction of canine prostate smooth muscle can be correlated with α-1A adrenoreceptor activation. […] For each of these models, agonist dose response curves were repeated against increasing concentrations of test agent to derive a Schild plot [log ([…]) against log (molarity of test agent)] to determine the pA2.

[2] = target: T2, α-1A adrenoreceptor (canine prostate smooth muscle) (Canis lupus, UniProt A0A8I3NK63); assay: Functional antagonism: inhibition of phenylephrine-induced contraction of canine prostate strips; assay type: cell-based; conditions: Schild plot
T2 construct: antagonism of phenylephrine-induced contraction (pA2, Schild)
T2 sequence (A0A8I3NK63 1-466): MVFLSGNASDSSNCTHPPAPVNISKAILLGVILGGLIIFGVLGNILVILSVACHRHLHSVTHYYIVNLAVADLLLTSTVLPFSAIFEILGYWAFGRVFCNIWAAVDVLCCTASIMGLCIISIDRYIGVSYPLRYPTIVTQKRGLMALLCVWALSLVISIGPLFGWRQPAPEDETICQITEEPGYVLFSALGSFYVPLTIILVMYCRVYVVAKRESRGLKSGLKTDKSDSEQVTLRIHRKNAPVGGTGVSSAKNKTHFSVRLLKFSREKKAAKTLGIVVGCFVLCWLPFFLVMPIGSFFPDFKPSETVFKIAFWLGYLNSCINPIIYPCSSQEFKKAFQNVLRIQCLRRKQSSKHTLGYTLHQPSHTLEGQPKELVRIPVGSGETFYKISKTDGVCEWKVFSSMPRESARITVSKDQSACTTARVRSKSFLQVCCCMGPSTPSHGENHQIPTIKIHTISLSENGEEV
Description: Canine prostate strips were used in vitro as previously described (Hieble, J. P., Boyce, Caine, M., Fed Proc., 45: 2609-2614 (1986)), to determine antagonist potencies phenylephrine-induced contractions.
as §1
Canine prostate strips were used in vitro as previously described (Hieble, J. P., Boyce, A. J. and Caine, M., Fed. Proc., 45: 2609-2614 (1986)), to determine antagonist potencies against phenylephrine-induced contractions.

[3] = test system: α-1 adrenoreceptor; conditions: cited from earlier work; for dose limiting side effects: BPH treatment; for urinary flow rates and subjective symptom scores: longer term studies, BPH
[4] = target: T3, α-1 Adrenoceptors (Rat Aorta) (Rattus norvegicus, UniProt P23944); assay: Functional antagonism at α-1 adrenoceptors, rat aorta; assay type: cell-based; conditions: read-out: In Vitro Characterization (pA2) Rat Aorta (converted)
T3 construct: Rat Aorta; from tissue; host or cells: rat aorta
T3 sequence (P23944 1-561): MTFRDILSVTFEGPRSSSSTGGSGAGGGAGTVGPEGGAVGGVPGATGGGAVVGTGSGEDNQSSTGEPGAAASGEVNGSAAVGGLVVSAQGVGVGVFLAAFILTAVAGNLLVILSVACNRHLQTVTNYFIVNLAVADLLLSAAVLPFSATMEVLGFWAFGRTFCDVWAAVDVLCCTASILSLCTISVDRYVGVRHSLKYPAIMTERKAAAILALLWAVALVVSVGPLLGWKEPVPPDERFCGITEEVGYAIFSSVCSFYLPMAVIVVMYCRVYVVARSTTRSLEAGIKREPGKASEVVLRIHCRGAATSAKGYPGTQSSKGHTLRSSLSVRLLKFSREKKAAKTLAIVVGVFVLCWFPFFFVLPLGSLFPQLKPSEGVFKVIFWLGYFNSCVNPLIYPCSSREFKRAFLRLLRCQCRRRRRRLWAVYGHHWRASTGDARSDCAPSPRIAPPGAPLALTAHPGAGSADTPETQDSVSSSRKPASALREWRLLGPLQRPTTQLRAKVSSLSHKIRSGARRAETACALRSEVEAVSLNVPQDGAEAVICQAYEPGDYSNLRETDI
Description: as §1

SMILES | In Vitro Characterization (pA2) Rat Spleen [1] | In Vitro Characterization (pA2) Dog Prostate [2] | Kb [4] | other results
COc1cccc2c1OC[C@H]1CN(CCn3c(=O)[nH]c4c(sc5ccccc54)c3=O)C[C@@H]21.Cl (racemic) [Example 67, 3-[2-((±)-cis-6-Methoxy-1,2,3,3a,4,9b-hexahydro-[1]-benzopyrano[3,4-c]pyrrol-2-yl)ethyl]-[1]-benzthieno[3,2-d]pyrimidine-2,4(1H,3H)-dione hydrochloride] | 6.83 | 7.33 | – | –
COc1cc2[nH]c(=O)n(CCCCN3C[C@@H]4COc5ccccc5[C@@H]4C3)c(=O)c2cc1OC.Cl (racemic) [Example 81, 3-[4-((±)-cis-1,2,3,3a,4,9b-hexahydro-[1]-benzopyrano[3,4-c]pyrrol-2-yl)butyl]-6,7-dimethoxy-quinazoline-2,4(1H,3H)-dione hydrochloride] | 7.41 | – | – | –
COc1cc2nc(N3CCN(C(=O)C4COc5ccccc5O4)CC3)nc(N)c2cc1OC (stereo not shown) [Doxazosin, doxazosin] | – | – | – | dose limiting side effects [3]: hypotension, dizziness, and muscle fatigue; urinary flow rates and subjective symptom scores [3]: significant improvements in urinary flow rates and subjective symptom scores; clinical efficacy in BPH ([3]; non-selective α-1 blockers): Clinical efficacy
COc1cccc2c1[C@H]1CN(CCCCn3c(=O)[nH]c4c(sc5cccnc54)c3=O)C[C@H]1CO2 [Example 2, 3-[4-((3aS,9bS)-cis-9-Methoxy-1,2,3,3a,4,9b-hexahydro-[1]-benzopyrano[3,4-c]pyrrol-2-yl)butyl]-pyrido[2',3':4,5]thieno[3,2-d]pyrimidine-2,4(1H,3H)-dione hydrochloride] | – | 7.95 | – | –
COc1cccc2c1[C@@H]1CN(CCCCn3c(=O)[nH]c4c(sc5cccnc54)c3=O)C[C@H]1CO2 [Example 3, 3-[4-((3aS,9bR)-trans-9-Methoxy-1,2,3,3a,4,9b-hexahydro-[1]-benzopyrano[3,4-c]pyrrol-2-yl)butyl]-pyrido[2',3':4,5]thieno[3,2-d]pyrimidine-2,4(1H,3H)-dione hydrochloride] | – | 9.43 | – | –
COc1cccc2c1[C@@H]1CN(CCCCn3c(=O)[nH]c4c(sc5ncc(Cl)nc54)c3=O)C[C@H]1CO2 [Example 13, 3-[4((3aS,9bR)-trans-9-Methoxy-1,2,3,3a,4,9b-hexahydro-[1]-benzopyrano[3,4-c]pyrrol-2-yl)butyl]-8-chloro-pyrazino[2',3':4,5]thieno[3,2-d]pyrimidine-2,4(1H,3H)-dione hydrochloride] | – | 9.91 | 0.0407 nM | –
COc1ccc2sc3c(=O)n(CCCCN4C[C@H]5COc6cccc(OC)c6[C@@H]5C4)c(=O)[nH]c3c2n1 [Example 26, 3-[4-((3aS,9bR)-trans-9-Methoxy-1,2,3,3a,4,9b-hexahydro-[1]-benzopyrano[3,4-c]pyrrol-2-yl)butyl]-8-methoxy-pyrido[2',3':4,5]thieno[3,2-d]pyrimidine-2,4(1H,3H)-dione dihydrochloride] | – | 9.15 | 0.0661 nM | –
COc1cccc2c1[C@@H]1CN(CCCCn3c(=O)[nH]c4c(sc5ncccc54)c3=O)C[C@@H]1CO2 [Example 34, hydrochloride] | 8.12 | – | 0.646 nM | –
COc1cccc2c1[C@@H]1CN(CCCCn3c(=O)[nH]c4c(sc5ncc(-c6ccccc6)nc54)c3=O)C[C@@H]1CO2 [Example 39, 3-[4-((3aR,9bR)-cis-9-Methoxy-1,2,33a,4,9b-hexahydro-[1]-benzopyrano[3,4-c]pyrrol-2-yl)butyl]-8-phenyl-pyrazino[2',3':4,5]thieno[3,2-d]pyrimidine-2,4(1H,3H)-dione hydrochloride] | 6.83 | 8.52 | 12.9 nM | –
COc1cccc2c1[C@@H]1CN(CCCCn3c(=O)[nH]c4c(sc5ncccc54)c3=O)C[C@H]1CO2 [Example 44, 3-[4-((3aS,9bR)-trans-9-Methoxy-1,2,3,3a,4,9b-hexahydro-[1]-benzopyrano[3,4-c]pyrrol-2-yl)butyl]-pyrido[3',2':4,5]thieno[3,2-d]pyrimidine-2,4(1H,3H)-dione hydrochloride] | 8.35 | – | 0.0398 nM | –
COc1ccc2c(n1)sc1c(=O)n(CCCCN3C[C@H]4COc5cccc(OC)c5[C@@H]4C3)c(=O)[nH]c12 [Example 46, 3-[4-((3aS,9bR)-trans-9-Methoxy-1,2,3,3a,4,9b-hexahydro-[1]-benzopyrano[3,4-c]pyrrol-2-yl)butyl]-7-methoxy-pyrido[3',2':4,5]thieno[3,2-d]pyrimidine-2,4(1H,3H)-dione hydrochloride] | 8.12 | – | 0.155 nM | –
COc1cccc2c1[C@@H]1CN(CCCCn3c(=O)[nH]c4c(sc5nc(Cl)ccc54)c3=O)C[C@H]1CO2 [Example 47, 3-[4-((3aS,9bR)-trans-9-Methoxy-1,2,3,3a,4,9b-hexahydro-[1]-benzopyrano[3,4-c]pyrrol-2-yl)butyl]-7-chloro-pyrido[3',2':4,5]thieno[3,2-d]pyrimidine-2,4(1H,3H)-dione hydrochloride] | 7.95 | – | 0.204 nM | –
COc1cccc2c1[C@@H]1CN(CCCCn3c(=O)[nH]c4c(sc5ncc(-c6ccccc6)nc54)c3=O)C[C@H]1CO2 [Example 50, 3-[4-((3aS,9bR)-trans-9-Methoxy-1,2,3,3a,4,9b-hexahydro-[1]-benzopyrano[3,4-c]pyrrol-2-yl)butyl]-8-phenyl-pyrazino[2',3':4,5]thieno[3,2-d]pyrimidine-2,4(1H,3H)-dione hydrochloride] | 6.5 | 8.45 | 0.389 nM | –
COc1cccc2c1[C@@H]1CN(CCCCn3c(=O)[nH]c4c(sc5c(Cl)nccc54)c3=O)C[C@H]1CO2 [Example 54] | 7.31 | – | – | –
COc1cccc2c1[C@@H]1CCN(CCCCn3c(=O)[nH]c4c(sc5cccnc54)c3=O)C[C@H]1CO2 [Example 95, 3-[4-((4aS,10bR)-trans-10-Methoxy-1,3,4,4a,5,10b-hexahydro-2H-[1]-benzopyrano[3,4-c]pyrido-3-yl)butyl]-pyrido[2',3':4,5]thieno[3,2-d]pyrimidine-2,4(1H,3H)-dione dihydrochloride] | – | 8.58 | – | –
COc1cccc2c1[C@@H]1CCN(CCCCn3c(=O)[nH]c4c(sc5ncc(Cl)nc54)c3=O)C[C@H]1CO2 [Example 97, 3-[4-((4aS,10bR)-trans-10-Methoxy-1,3,4,4a,5,10b-hexahydro-2H-[1]-benzopyrano[3,4-c]pyrido-3-yl)butyl]-8-chloro-pyrazino[2',3':4,5]thieno[3,2-d]pyrimidine-2,4(1H,3H)-dione dihydrochloride] | – | 8.6 | – | –
O=C(NC1CCN(CCc2c[nH]c3ccccc23)CC1)c1ccccc1 [indoramin] | – | – | – | dose limiting side effects [3]: hypotension, dizziness, and muscle fatigue; urinary flow rates and subjective symptom scores [3]: significant improvements in urinary flow rates and subjective symptom scores
